How the values were obtained:
Gram negative strains = assay: Antibiotic activity, plate counts on Mueller-Hinton agar, Gram negative ATCC strains; assay type: cell-based; details: 2 mg/ml, 1 mg/ml; plate counts after overnight incubation at 37° C.
Method: The antibiotic activity of S-2-amino-3(3-phenylacetylimidazol-4-yl)propanoic acid (Compound A) was tested with a panel of standard ATCC bacteria, including 13315 Proteus vulgaris, 13883 Klebsiella pneumoniae, 25922 Escherichia coli, 27853 and Pseudomomas aeruginosa.
Doubling dilutions of Compound A were tested on its antibiotic potentials. […] Plate counts were performed. All petri plates inoculated with 1 ml 0.5McFarland turbidity of corresponding ATCC strain.

Gram positives = assay: Antibiotic activity, plate counts on Mueller-Hinton agar, Gram positives; assay type: cell-based; details: plate counts after overnight incubation at 37° C.
U-87 cells = assay: Cell viability (cell count) with U-87 cells; assay type: cell-based; details: Homo sapiens, U-87 MG, 72 hours, 37° C., MEM pH 7.0, read-out: EC90 (concentration resulting in greater than 90% decrease of cell numbers)
HepG2 cells = assay: Cell viability of HepG2 cell line; assay type: cell-based; details: Homo sapiens
Method: The antineoplastic activities of Compound A were tested with U-87, a human glioblastoma/astrocytoma cell line and HepG2, a human liver carcinoma cell line.
The antineoplastic activity of Compound A was also measured with HepG2 cells.

mice = assay: Preclinical safety study in mice; assay type: in vivo; details: 300 mg/kg or 500 mg/kg orally (PO), up to 72 hours
Method: Preclinical safety studies were performed with administration of different levels of doses of Compound A to mice. Toxicity was analyzed with standard clinical chemical and histopathological examination. Five mice (n=5) were treated with 300 mg/kg or 500 mg/kg orally (PO) with one hour pretreatment for PO. Autonomic signs/mortality was measured during the first hour and mortality was measured again at 3, 24, 48 and 72 hours after administration.

caspase 3 = assay: In vitro caspase assay (ELISA) in U-87 cells; assay type: cell-based, human; details: 5 mM, 18 hours after the addition
Method: U-87 cells were used to test the effect of Compound A on the apoptotic pathway.
U-87 cells were seeded in MEM alone or in MEM supplemented with 5 mM of Compound A, in MTP. For in vitro caspase assay, the cell culture plates were removed from incubator, cells were lysed and centrifuged and the supernatant was tested for caspase levels (C3). Supernatants from each sample were tested side by side on a new microtitre plate by ELISA with AP labelled IgG C3 antibody, pNPP chromogen (Enzo Diagnostics, Farmingdale, N.Y.). Caspase assays were performed immediately after the addition of the MEM medium, with or without Compound A, and 18 hours after the addition.

## N[C@@H](Cc1cncn1C(=O)Cc1ccccc1)C(=O)O [Compound A, (S)-2-amino-3-(3-phenylacetylimidazol-4-yl) propanoic acid]
Gram negative strains
  inhibition of Gram negative strains: did show inhibition
Gram positives
  inhibition of Gram positives: No inhibition
U-87 cells
  EC90: 5 mM
HepG2 cells
  EC90: 5 mM
HepG2 cells; 5 mM, read-out: decrease in cell viability
  cytotoxicity at 5000 µM: > 90%
mice
  toxicity (autonomic signs/mortality, clinical chemical and histopathological examination): No toxicity was observed
Caspase 3
  increase of caspase 3: Exponential increase, in the scale of several orders of magnitude

From US20110245311A1, “Histidine Derivatives” (priority 2010, published 2011)
